Earlier results, collected in PubChem BioAssay AID1259409 (Chemical Carcinogenesis Research Information System (CCRIS), 2018).

System: rodent chemically induced tumor inhibition, incidence and multiplicity
Assay: CCRIS tumor inhibitor studies

| SMILES | tumour outcome (control, treated, inhibition, significance) (Carcinogen: 7,12-DIMETHYLBENZ[A]ANTHRACENE (57-97-6), Dose [Inhibitor]: 140 MG/KG DIET FOR 17 WKS (STUDY DURATION: 17 WKS), Route [Inhibitor]: DIET, Species: RAT, Strain/Sex: SPRAGUE-DAWLEY/FEMALE (20,18)/(20,19), Target Tissue: Type of Lesion: MAMMARY, Dose [Carcinogen]: 12.5 MG ONCE 1 WK AFTER START OF DIET (STUDY DURATION: 17 WKS)) | tumour outcome (control, treated, inhibition, significance) (Carcinogen: 7,12-DIMETHYLBENZ[A]ANTHRACENE [57-97-6], Dose [Inhibitor]: 20 UG/L IN 0.05 ML PEANUT OIL 2X/WK FOR 2 WK BEGINNING AT 7 D OF AGE (STUDY DURATION: 24 WK), Route [Inhibitor]: SUBCUTANEOUS, Species: RAT, Strain/Sex: SPRAGUE-DAWLEY/FEMALE, Target Tissue: Type of Lesion: MAMMARY GLAND: TUMOR, Dose [Carcinogen]: 10 MG IN 1 ML PEANUT OIL ONCE AT 45 D OF AGE (STUDY DURATION: 24 WK), Promoter: NONE) | tumour outcome (control, treated, inhibition, significance) (Carcinogen: 7,12-DIMETHYLBENZ[A]ANTHRACENE, 57-97-6, Dose [Inhibitor]: 0, 25 PPM IN DIET FOR 50 WK BEGINNING 1 WK POST-CARCINOGEN DOSE (STUDY DURATION: 51 WK), Route [Inhibitor]: ORAL, Species: RAT, Strain/Sex: SPRAGUE-DAWLEY/FEMALE, Target Tissue: Type of Lesion: OVARY: ADENOCARCINOMA, Dose [Carcinogen]: 0.01 ML OF 0.5% DMBA IN OLIVE OIL INTO THE LEFT OVARY, ONCE, UNDER PENTOBARBITAL ANESTHESIA, Promoter: NONE USED) | tumour outcome (control, treated, inhibition, significance) (Carcinogen: 7,12-DIMETHYLBENZ[A]ANTHRACENE, 57-97-6, Dose [Inhibitor]: 0, 250 PPM IN DIET FOR 50 WK BEGINNING 1 WK POST-CARCINOGEN DOSE (STUDY DURATION: 51 WK), Route [Inhibitor]: ORAL, Species: RAT, Strain/Sex: SPRAGUE-DAWLEY/FEMALE, Target Tissue: Type of Lesion: OVARY: ADENOCARCINOMA, Dose [Carcinogen]: 0.01 ML OF 0.5% DMBA IN OLIVE OIL INTO THE LEFT OVARY, ONCE, UNDER PENTOBARBITAL ANESTHESIA, Promoter: NONE USED) | tumour outcome (control, treated, inhibition, significance) (Carcinogen: 7,12-DIMETHYLBENZ[A]ANTHRACENE, 57-97-6, Dose [Inhibitor]: 0, 500 UG/G BW ONCE ON DAYS 16, 18 AND 20 OF AGE (STUDY DURATION: 200 D), Route [Inhibitor]: SUBCUTANEOUS, Species: RAT, Strain/Sex: SPRAGUE-DAWLEY/FEMALE, Target Tissue: Type of Lesion: MAMMARY GLAND: TUMOR, Dose [Carcinogen]: 80 UG/G BW IN SESAME OIL ONCE AT 50 DAYS OF AGE, Promoter: NONE USED) | outcome (Carcinogen: Dimethylbenzanthracene, 57-97-6, Dose [Inhibitor]: 10 mg/kg bw/day, suspended in distilled water daily by gavage, dose duration 12 wk, study duration 18 wk, Route [Inhibitor]: Oral, Species: Hamster, Strain/Sex: Syrian golden/Male, Target Tissue: Type of Lesion: Oral cavity, Dose [Carcinogen]: 100 ul of 0.5% DMBA in mineral oil applied with a paint brush 3 times/wk for 6 wk, Promoter: None) | tumour outcome (control, treated, inhibition, significance) (Carcinogen: N-METHYL-N'-NITRO-N-NITROSOGUANADINE, 70-25-7, Dose [Inhibitor]: 0, 15 MG/KG 1/2 D FOR 26 WK BEGINNING 1 WK POST CARCINOGEN TREATMENT (STUDY DURATION: 52 WK), Route [Inhibitor]: SUBCUTANEOUS, Species: RAT, Strain/Sex: WISTAR/MALE, Target Tissue: Type of Lesion: STOMACH: ADENOCARCINOMA, Dose [Carcinogen]: 25 UG/ML IN DRINKING WATER FOR 25 WK, Promoter: SODIUM CHLORIDE, 7647-14-5) | tumour outcome (control, treated, inhibition, significance) (Carcinogen: N-METHYL-N-NITROSOUREA, 684-93-5, Dose [Inhibitor]: 0, 1 MG/30 G BW 1/4 WK FOR 25 WK BEGINNING 5 WK POST CARCINOGEN TREATMENT (STUDY DURATION: 30 WK), Route [Inhibitor]: SUBCUTANEOUS, Species: MOUSE, Strain/Sex: ICR/FEMALE, Target Tissue: Type of Lesion: UTERUS (LEFT): ADENOCARCINOMA, Dose [Carcinogen]: 0.1 MG/KG BW INJECTED INTO LEFT UTERINE TUBE ONCE) | tumour outcome (control, treated, inhibition, significance) (Carcinogen: N-METHYL-N-NITROSOUREA, 684-93-5, Dose [Inhibitor]: 0, 1 MG/30 G BW 1/4 WK FOR 25 WK BEGINNING 5 WK POST CARCINOGEN TREATMENT (STUDY DURATION: 30 WK), Route [Inhibitor]: SUBCUTANEOUS, Species: MOUSE, Strain/Sex: ICR/FEMALE, Target Tissue: Type of Lesion: UTERUS (LEFT): ADENOCARCINOMA, Dose [Carcinogen]: 0.1 MG/KG BW INJECTED INTO LEFT UTERINE TUBE ONCE, Promoter: 17-BETA-ESTRADIOL, 50-28-2) | tumour outcome (control, treated, inhibition, significance) (Carcinogen: N-METHYL-N;-NITRO-N-NITROSOGUANIDINE, 70-25-7, Carcinogen: N-METHYL-N;-NITRO-N-NITROSOGUANIDINE, 70-25-7, Dose [Inhibitor]: 0, 30 MG/KG 1/2 FOR 26 WK BEGINNING 1 WK POST CARCINOGEN TREATMENT (STUDY DURATION: 52 WK), Route [Inhibitor]: SUBCUTANEOUS, Species: RAT, Strain/Sex: WISTAR/MALE, Target Tissue: Type of Lesion: STOMACH: ADENOCARCINOMA, Dose [Carcinogen]: 25 UG/ML IN DRINKING WATER FOR 25 WK, Promoter: SODIUM CHLORIDE, 7647-14-5) | tumour outcome (control, treated, inhibition, significance) (Carcinogen: N-BUTYL-N-(4-HYDROXYBUTYL)NITROSAMINE, 3817-11-6, Dose [Inhibitor]: 1.5 MMOL/KG DIET DAILY FOR 159 D STARTING 1 WK AFTER THE FINAL CARCINOGEN DOSE (STUDY DURATION: 216 D), Route [Inhibitor]: ORAL, Species: MOUSE, Strain/Sex: DBF1/MALE, Target Tissue: Type of Lesion: URINARY BLADDER: TRANSITIONAL CELL CARCINOMA, Dose [Carcinogen]: 7.5 MG 1/WK FOR 8 WK, Promoter: NONE USED) | tumour outcome (control, treated, inhibition, significance) (Carcinogen: N-BUTYL-N-(4-HYDROXYBUTYL)NITROSAMINE, 3817-11-6, Dose [Inhibitor]: 1.5 MMOL/KG IN DIET FOR 159 D STARTING 1 WK AFTER LAST CARCINOGEN DOSE (STUDY DURATION: 216 D), Route [Inhibitor]: ORAL, Species: MOUSE, Strain/Sex: BDF/MALE, Target Tissue: Type of Lesion: URINARY BLADDER: TRANSITIONAL CELL CARCINOMA, Dose [Carcinogen]: 7.5 MG 1/WK FOR 8 WK, Promoter: NONE USED) |
| --- | --- | --- | --- | --- | --- | --- | --- | --- | --- | --- | --- | --- |
| O=c1c(-c2ccc(O)cc2)coc2cc(O)cc(O)c12 | 95%, 85%, 11%, p=0.408 | 17/30 (57%), 13/30 (43%), 25%, not significant | 7/20 (35%), 1/20 (5%), 86%, p=0.02 | 7/20 (35%), 0/20 (0%), 100%, p=0.0042 | 92%, 85%, 8%, not significant | 15/28 (53%), 11/27 (40.7%), not significant | 18/20 (90%), 12/20 (60%), 33%, not significant | 3/26 (11%), 0/15 (0%), 100%, not significant | 8/24 (33%), 0/19 (0%), 100%, p<0.01 | 18/20 (90%), 7/19 (37%), 59%, p<0.05 | – | – |
| CC1=C(/C=C/C(C)=C/C=C/C(C)=C\C(=O)NCCO)C(C)(C)CCC1 | – | – | – | – | – | – | – | – | – | – | 29/98 (30%), 16/97 (17%), 43%, p<0.05 | 29/98 (30%), 16/97 (17%), 43%, p<0.05 |
